Data from patent publication US20200345725A1, “Methods and Compositions for Treating Cancer” (Omeros Corporation, priority 2019, published 2020).
Where “and” joins values, the source holds several entries; their conditions need not be identical. Equal entries are not always repeated.

Key:
Format in all cases: cell-based
[1] = molecular target: GPR174 (Homo sapiens, UniProt Q9BXC1); assay: CRE-Luc reporter Gs signaling assay with GPR174; set-up: host or cells: HEK293 or CHO cell lines (ATCC); conditions: for Gs pathway in the presence of GPR174 (CRE-Luc reporter): increasing concentrations of compound; for Fold decrease in Gs signaling activity / EC50: pCRE-Luc reporter; for EC50: multiple values = separate experiments
GPR174 (Homo sapiens, UniProt Q9BXC1), sequence (Q9BXC1 whole entry): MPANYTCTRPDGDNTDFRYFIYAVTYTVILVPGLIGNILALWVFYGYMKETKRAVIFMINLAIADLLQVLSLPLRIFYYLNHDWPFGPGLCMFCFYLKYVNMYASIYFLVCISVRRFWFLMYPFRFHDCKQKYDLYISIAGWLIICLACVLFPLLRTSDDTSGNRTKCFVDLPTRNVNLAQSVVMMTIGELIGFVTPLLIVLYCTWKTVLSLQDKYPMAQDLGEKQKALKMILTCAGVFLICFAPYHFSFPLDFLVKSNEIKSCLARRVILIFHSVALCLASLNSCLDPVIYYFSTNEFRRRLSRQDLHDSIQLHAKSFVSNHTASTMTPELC

[2] = system: mouse splenocytes; assay: IL-2 levels in supernatants of cultured mouse splenocytes (WT or GPR174-KO) stimulated with anti-CD3 and anti-CD28, MSD platform; conditions: 2 days
Method: To make single cell suspensions from mouse splenocytes, spleens were cut into 1-2 mm^3 pieces with a razor blade and incubated at 37° C. with 10 μg/mL DNase and 1 mg/mL Collagenase D with agitation for 90 min. Spleen fragments and cells were then pressed through a nylon screen, and the resulting cell suspension was washed. In 96-well flat-bottom plates, splenocytes were cultured in quadruplicate with the following conditions for 2 days, after which supernatants were tested for cytokine levels with the MSD platform.
Anti-CD3 (clone 2C11; 0.1 μg/mL)
GPR174 inhibitor (compound 10, 1 μM or 0.3 μM, or DMSO vehicle control)
GPR174 inhibitor (compound 6, 0.3 μM, or DMSO vehicle control)
Adenosine receptor agonist (NECA, 0.1 μM)

[3] = system: human PBMCs; assay: Treg (FoxP3/Helios) flow cytometry in stimulated human PBMC
Method: (§1) A fraction of the cells was taken for staining on day 3 post-stimulation, while the rest of the cells were split 1:4 with fresh medium and used for staining on day 7 post-stimulation. To determine the fraction of natural Treg (nTreg) cells (FoxP3^+Helios^+), PBMCs were washed, stained with fluorescently labeled anti-CD4 antibodies, fixed, permeabilized and stained with a mixture of fluorescent anti-FoxP3 and anti-Helios antibodies. Labeled cells were analyzed by flow cytometry for populations stained for these three markers. Each experiment was performed in triplicate and was repeated five times.
as §1, with “(FoxP3^+Helios^−),” for “(FoxP3^+Helios^+),”, “three” for “five”
as §1, with “day 2” for “day 3”, “(FoxP3^+Helios^+), PBMC” for “(FoxP3^+Helios^+), PBMCs”

[4] = system: purified human T cells; assay: Cytokines of purified human T cells activated with K562 cells, with or without PS liposomes, tumor exosomes, GPR174 inhibitor; conditions: for IFN-γ FC (fold change), Compound 10 vs Vehicle / IL-2 FC (fold change), Compound 10 vs Vehicle / TNF FC (fold change), Compound 10 vs Vehicle: stimulated human T cells, compound 10, 0.5 μM
Method: Purified human T cells (Astarte Biologies, Inc) were activated in the presence of K562 cells (as artificial antigen presenting cells) presenting anti-CD3 and CD80.Fc via Fc-receptor binding, in 96-well U-bottom plates containing X-vivo-15 media in the following conditions:
Anti-CD3 (clone UCHT1, 0.5 μg/mL)
CD80.Fc fusion protein (R&D Systems, 2 μg/mL)
Exosomes from human breast cancer tumor cell line MDA-MB-231 (12 μg/mL) (EXOP-105A-1 from System Biosciences, LLC)
GPR174 inhibitor (compound 10, 0.5 μM or 3 μM)
Cells were cultured for 24 hours and supernatants were evaluated for cytokine concentrations (Legendplex, Biolegend).

[5] = molecular target: T1, GPR174 (Mus musculus, UniProt Q3U507); assay: IL-2 production from purified GPR174 WT and GPR174-KO mouse T cells with PS liposomes (FIG. 67); conditions: GPR174 WT mouse T cells, in presence of PS liposomes, FIG. 67
T1 construct: endogenous in cells; host or cells: purified mouse T cells from WT (and GPR174-KO) mice
T1 sequence (Q3U507 whole entry): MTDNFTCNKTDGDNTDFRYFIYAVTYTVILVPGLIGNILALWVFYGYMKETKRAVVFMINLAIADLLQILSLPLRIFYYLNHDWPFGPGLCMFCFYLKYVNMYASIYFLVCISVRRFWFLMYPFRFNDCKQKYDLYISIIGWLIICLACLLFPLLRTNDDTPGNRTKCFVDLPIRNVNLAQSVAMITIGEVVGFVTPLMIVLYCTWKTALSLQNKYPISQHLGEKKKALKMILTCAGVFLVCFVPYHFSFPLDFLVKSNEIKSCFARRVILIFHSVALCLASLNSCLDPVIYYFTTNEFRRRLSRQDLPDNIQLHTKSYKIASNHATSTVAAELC

[6] = system: GPR174; assay: as above
[7] = system: human PBMCs; assay: CTLA-4 expression on naive and memory T cells in human PBMC; conditions: 0.19-6.0 μM; one day post-stimulation; vs vehicle
Method: PBMC cells from a single donor were cultured overnight with additional irradiated antigen-presenting cells (APC) in the presence of various concentrations of GPR174 inhibitory compound 10 (0.019 to 6 μM) or equivalent concentrations of vehicle (DMSO). Anti-CD3 (OKT3) was then added to the cultures for an additional 24 hours. The cells were analyzed by flow cytometry for expression of FOXP3, CTLA-4, CD4, CD3, CD45RA and CD25.

[8] = system: human T cells; assay: PD-L1, TIGIT and AREG expression on human T cells in PBMC; conditions: 1.25 or 5 μM; one day post-stimulation
Method: PBMC cells from a single donor mixed with additional irradiated antigen-presenting cells (APC) and anti-CD3 antibodies (UCHT1) were incubated in the presence of various concentrations of GPR174 inhibitory compound 10 (1.25 to 5 μM) or equivalent concentrations of vehicle (DMSO). The cells were analyzed by flow cytometry for expression of CD4, CD8, PD-L1, TIGIT and AREG.

[9] = system: human PBMC; assay: IL-2 in supernatants of human PBMC stimulated with anti-CD3 and anti-CD28, ELISA; conditions: human PBMC donor 8, 24 hours post-stimulation; compound 10 1 μM, ZM-241385 0.1 μM, APCP 10 μM; FIG. 71
Method: Human PBMCs, obtained from a human volunteer donor (donor 8), were dispensed in X-vivo15 media (Lonza) supplemented with Glutamax, penicillin and streptomycin, at density of 1×10^6 cells/well in a 96-well flat-bottom plate and were cultured in quadruplicate for 3 hours in the presence of:
GPR174 inhibitory compound 10 (1 μM);
CD73 inhibitory compound, adenosine 5′-(a,p-methylene)diphosphate sodium salt (APCP, Tocris, 10 μM);
Combinations of the above agents;
After which 1 μg/mL anti-CD3 antibody (UCHT1) and 0.1 μg/mL anti-CD28 antibody (CD28.2) were added to activate T cells. Supernatants from these cells were collected at 24 hours post-stimulation and the levels of IL-2 were determined by ELISA.

[10] = in the presence of Exosomes (human breast cancer tumor-derived)
[11] = in the presence of PS Liposomes

## O=C(c1ccccc1)N1CCN(c2cc(N3CCCCC3)c(F)cc2[N+](=O)[O-])CC1 [compound 6]
[1]
  Gs pathway in the presence of GPR174 (CRE-Luc reporter): inhibited
  Fold decrease in Gs signaling activity: 3.8 fold
  EC50: 400 nM and 300 nM
[2]; GPR174-KO splenocytes, NECA 0.1 μM, compounds 10, 6 0.3 μM, ZM-241385 0.2 μM, FIG. 70B
  increase of IL-2 levels: modest off-target activity

## CC1CCN(c2cc(N3CCN(S(=O)(=O)c4ccccc4)CC3)c([N+](=O)[O-])cc2F)CC1 [compound 10]
[1]
  Gs pathway in the presence of GPR174 (CRE-Luc reporter): inhibited
  Fold decrease in Gs signaling activity: 5.1 fold
  EC50: 200 nM and 500 nM
[3]; Example 6, day 7 post-stimulation, 100 μM, vs vehicle
  percentage of FoxP3+Helios+ (nTreg) cells in the CD4+ cell population: significantly reduced
[3]; Example 8, day 7, single donor, 3, 10, 30 μM
  percentage of FoxP3+Helios+ (nTreg) cells in the CD4+ cell population: significantly reduced
[3]; Example 9, day 7, eight donors, 30 μM
  FoxP3+Helios+ (nTreg) cells in the CD4+ cell population, fraction of vehicle: significantly reduced
[3]; day 3 post-stimulation, 100 μM, vs vehicle
  percentage of FoxP3+Helios− cells in the CD4+ cell population: significantly increased
[4]; compound 10 3 μM
  IL-2 production, fold change by compound 10 in the absence of PS liposomes (FIG. 65): 1.3 fold
[4]; compound 10 3 μM, PS liposomes 1 μM
  IL-2 production, fold change by compound 10 in the presence of PS liposomes (FIG. 65): 2.4 fold
[4]; [10]
  IFN-γ FC (fold change), Compound 10 vs Vehicle: 1.4
  IL-2 FC (fold change), Compound 10 vs Vehicle: 1.7
  TNF FC (fold change), Compound 10 vs Vehicle: 1.7
[4]; in the presence of Media
  IFN-γ FC (fold change), Compound 10 vs Vehicle: 1.1
  IL-2 FC (fold change), Compound 10 vs Vehicle: 1.2
  TNF FC (fold change), Compound 10 vs Vehicle: 1.4
[4]; [11]
  IFN-γ FC (fold change), Compound 10 vs Vehicle: 1.3
  IL-2 FC (fold change), Compound 10 vs Vehicle: 1.4
  TNF FC (fold change), Compound 10 vs Vehicle: 1.7
[5]
  reversal of PS liposome-mediated suppression of IL-2, fold change: 3.5 fold
[6]; GPR174-KO mouse T cells, FIG. 67
  effect on IL-2 in presence of PS liposomes, fold change: 0.9 fold
[6]; purified human and mouse T cells
  effect on T cell response in the absence of PS or GPR174: negligible effect
[7]
  CTLA4 expression in memory Treg cells (CD45RA−FOXP3+): reduced
  CTLA4 expression in memory non-Treg cells (CD45RA−FOXP3−): reduced
  CTLA4 expression in naive Treg cells (CD45RA+FOXP3+): reduced
  CTLA4 expression in naive non-Treg cells (CD45RA+FOXP3−): reduced
[8]
  AREG expression in CD4+ T cells: reduced
  PD-L1 expression in CD4+ T cells: reduced
  TIGIT expression in CD8+ T cells: reduced
[9]
  increase of IL-2 levels: 1.4 fold
[2]; WT splenocytes, no NECA, compound 10 1 μM, ZM-241385 0.1 μM, FIG. 68A
  increase of IL-2 levels: greater than 4 fold
